In one experiment the target is T1, Coagulation factor VII (Homo sapiens, UniProt P08709).
T1 sequence (P08709 whole entry): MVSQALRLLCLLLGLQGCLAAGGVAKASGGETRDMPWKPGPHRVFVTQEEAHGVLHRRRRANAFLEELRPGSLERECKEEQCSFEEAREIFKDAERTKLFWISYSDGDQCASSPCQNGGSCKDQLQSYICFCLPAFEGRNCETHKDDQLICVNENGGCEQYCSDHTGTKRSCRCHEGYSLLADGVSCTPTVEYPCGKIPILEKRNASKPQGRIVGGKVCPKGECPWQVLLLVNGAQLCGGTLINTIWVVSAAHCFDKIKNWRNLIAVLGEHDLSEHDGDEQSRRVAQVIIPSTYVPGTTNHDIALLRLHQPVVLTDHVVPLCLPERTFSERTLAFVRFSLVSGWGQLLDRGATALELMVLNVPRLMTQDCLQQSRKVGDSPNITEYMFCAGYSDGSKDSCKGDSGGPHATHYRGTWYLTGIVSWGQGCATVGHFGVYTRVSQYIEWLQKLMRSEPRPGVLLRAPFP
Put plainly: Compound was tested for inhibitory activity against Coagulation factor VIIa.

In experiment [1] the target is T2, Coagulation factor XI (Homo sapiens, UniProt P03951). Put plainly: Compound was tested for inhibitory activity against Coagulation factor XIa.
T2 sequence (P03951 19-387 limits assumed): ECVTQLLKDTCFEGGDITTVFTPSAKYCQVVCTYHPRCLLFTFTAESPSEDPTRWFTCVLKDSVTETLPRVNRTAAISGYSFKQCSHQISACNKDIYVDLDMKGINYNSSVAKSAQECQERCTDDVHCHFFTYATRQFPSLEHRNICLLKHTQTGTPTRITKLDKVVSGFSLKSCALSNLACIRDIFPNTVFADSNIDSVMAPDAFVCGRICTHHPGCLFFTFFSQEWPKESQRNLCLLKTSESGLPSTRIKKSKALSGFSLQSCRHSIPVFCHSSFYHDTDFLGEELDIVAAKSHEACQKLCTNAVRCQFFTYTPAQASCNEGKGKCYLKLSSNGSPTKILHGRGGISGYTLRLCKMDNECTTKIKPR
T2 sequence (P03951 388-625 limits assumed): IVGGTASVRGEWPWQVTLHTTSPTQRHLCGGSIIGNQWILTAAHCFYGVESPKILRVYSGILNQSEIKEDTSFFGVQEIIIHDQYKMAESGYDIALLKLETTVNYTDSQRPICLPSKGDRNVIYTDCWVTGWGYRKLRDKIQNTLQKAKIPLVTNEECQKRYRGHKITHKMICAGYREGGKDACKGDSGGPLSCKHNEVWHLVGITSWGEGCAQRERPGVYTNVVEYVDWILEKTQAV
In the next experiment the target is Plasminogen (Homo sapiens, UniProt P00747). Put plainly: Compound was tested for inhibitory activity against Plasmin.
Chain of Plasminogen (P00747 97-580 limits assumed): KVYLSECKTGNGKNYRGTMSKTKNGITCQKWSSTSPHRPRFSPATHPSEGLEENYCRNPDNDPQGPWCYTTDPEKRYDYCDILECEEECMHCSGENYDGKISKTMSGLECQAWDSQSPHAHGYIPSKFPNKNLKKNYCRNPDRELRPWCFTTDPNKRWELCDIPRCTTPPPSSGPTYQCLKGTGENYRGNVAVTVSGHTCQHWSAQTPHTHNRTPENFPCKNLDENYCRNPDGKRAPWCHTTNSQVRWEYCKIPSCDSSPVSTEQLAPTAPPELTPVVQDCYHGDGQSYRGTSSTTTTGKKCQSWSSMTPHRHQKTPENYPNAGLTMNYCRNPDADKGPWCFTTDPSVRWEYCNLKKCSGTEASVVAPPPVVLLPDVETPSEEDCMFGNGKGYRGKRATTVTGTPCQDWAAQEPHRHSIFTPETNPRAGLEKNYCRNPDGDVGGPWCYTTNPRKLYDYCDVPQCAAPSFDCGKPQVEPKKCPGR
Chain of Plasminogen (P00747 581-810 limits assumed): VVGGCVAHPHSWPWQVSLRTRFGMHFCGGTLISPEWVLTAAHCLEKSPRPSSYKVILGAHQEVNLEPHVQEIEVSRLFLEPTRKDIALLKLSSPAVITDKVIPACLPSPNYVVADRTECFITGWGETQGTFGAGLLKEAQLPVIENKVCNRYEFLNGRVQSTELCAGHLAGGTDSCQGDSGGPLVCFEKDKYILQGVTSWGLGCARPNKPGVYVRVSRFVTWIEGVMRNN
In a further experiment the target is Prothrombin (Homo sapiens, UniProt P00734). Put plainly: Compound was tested for inhibitory activity against Thrombin.
The target of experiment [2] is T2, Coagulation factor XI. Put plainly: Compound was tested for inhibitory activity against Coagulation factor XIa at 8 uM.

The values below come from ChEMBL document CHEMBL1136036, “Targeting thrombin and factor VIIa: design, synthesis, and inhibitory activity of functionally relevant indolizidinones” (Bioorg Med Chem Lett, 2002).

`CO[C@H]1C[C@@](O)(Cc2ccccc2)C(=O)N2C(C(=O)NCc3ccc(C(=N)N)cc3)CC[C@@H]12` (stereo partly specified): the IC50 was 0.52 µM against Coagulation factor VII, 35 µM against Coagulation factor XI [1], 71 µM against Plasminogen and 0.11 µM on Prothrombin.

In the case of `CC[C@@H]1CC(C(=O)NCc2ccc(C(=N)N)cc2)N2C(=O)[C@](N)(Cc3ccccc3)C[C@H](OC)[C@H]12` (stereo partly specified), the concentration for half-maximal inhibition (IC50) is 0.42 µM against Coagulation factor VII, > 133 µM against Coagulation factor XI [1] and 11 µM against Plasminogen.

For the compound `C[C@]1(O)CC[C@@H]2CCC(C(=O)NCc3ccc(C(=N)N)cc3)N2C1=O` (stereo partly specified), the concentration for half-maximal inhibition (IC50) against Coagulation factor VII was > 10 µM; at Prothrombin, 0.27 µM. The same compound gave an inhibition at Coagulation factor XI [2] of 20%.

In the case of `C=C(C)C[C@]1(N)C[C@H](OC)[C@@H]2[C@H](CC)CC(C(=O)NCc3ccc(C(=N)N)cc3)N2C1=O` (stereo partly specified), the IC50 is 1.6 µM against Coagulation factor VII, > 133 µM at Coagulation factor XI [1], 37 µM against Plasminogen and 0.38 µM on Prothrombin.

Consider `N=C(N)c1ccc(CNC(=O)C2CC[C@H]3CC[C@@](O)(Cc4ccccc4)C(=O)N23)cc1` (stereo partly specified), for which, on Coagulation factor VII, half-maximal inhibition (IC50) was put at 1.1 µM. At Coagulation factor XI [2], this compound registered an inhibition of 78%.

Take `CC[C@@H]1CC(C(=O)NCc2ccc(C(=N)N)cc2)N2C(=O)[C@](N)(CC3=CCCCC3)C[C@H](OC)[C@H]12` (stereo partly specified): the IC50 at Coagulation factor VII is 4.6 µM; against Coagulation factor XI [1], > 133 µM; against Plasminogen, 141 µM; against Prothrombin, 0.17 µM.

In turn, `CC[C@@H]1CC(C(=O)NCc2ccc(C(=N)N)cc2)N2C(=O)[C@@](N)(CC3=CCCCC3)C[C@H](OC)[C@H]12` (stereo partly specified) yielded an IC50 on Coagulation factor VII of 109 µM.

For orientation: IC50 means the midpoint of a concentration-inhibition curve. One may read the inhibition as the share of the control response that was lost under treatment. Low readings indicate little suppression, high ones strong suppression.
